These results are taken from PMC6797481, “Identification of an allosteric binding site on the human glycine transporter, GlyT2, for bioactive lipid analgesics” (eLife, 2019).

Changes are numbered by the printed parent chain.

One assay concerns the target T1, GlyT2 W563L mutant (Homo sapiens, UniProt Q9Y345, W563L).
T1 construct: expressed in transfected cells; host or cells: Xenopus laevis oocytes (cRNA injection)
T1 sequence (Q9Y345 1-797 W563L): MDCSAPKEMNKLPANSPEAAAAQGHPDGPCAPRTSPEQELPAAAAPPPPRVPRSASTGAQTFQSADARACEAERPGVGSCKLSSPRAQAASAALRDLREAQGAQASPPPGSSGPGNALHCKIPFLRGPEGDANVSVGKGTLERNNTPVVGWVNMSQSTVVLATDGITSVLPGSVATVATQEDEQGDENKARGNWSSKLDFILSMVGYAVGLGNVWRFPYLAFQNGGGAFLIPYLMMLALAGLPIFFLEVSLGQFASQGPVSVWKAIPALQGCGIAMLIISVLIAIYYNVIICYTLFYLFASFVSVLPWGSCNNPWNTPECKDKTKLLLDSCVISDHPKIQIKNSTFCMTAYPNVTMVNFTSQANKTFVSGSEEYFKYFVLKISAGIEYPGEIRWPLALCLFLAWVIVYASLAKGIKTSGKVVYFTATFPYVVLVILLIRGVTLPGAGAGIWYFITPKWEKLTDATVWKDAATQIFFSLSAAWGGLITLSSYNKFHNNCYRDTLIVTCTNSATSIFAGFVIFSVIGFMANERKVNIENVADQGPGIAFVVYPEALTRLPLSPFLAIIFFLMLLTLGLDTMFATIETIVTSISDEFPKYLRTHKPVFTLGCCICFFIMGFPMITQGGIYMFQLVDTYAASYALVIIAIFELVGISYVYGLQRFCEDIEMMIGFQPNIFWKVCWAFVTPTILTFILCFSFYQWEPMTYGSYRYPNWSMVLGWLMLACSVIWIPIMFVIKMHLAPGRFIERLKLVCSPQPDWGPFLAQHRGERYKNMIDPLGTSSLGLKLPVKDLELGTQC
Description: Glycine transport currents, two electrode voltage clamp, oocytes expressing GlyT2 W563L. It is filed as cell-based. Conditions: for % Max. inhibition: mean ± SEM. The method, then: (§1) Glycine was first applied to establish maximal transport current.
(§2) Compounds were tested for inhibition of glycine transport on Xenopus laevis oocytes expressing mutant GlyT1 and GlyT2 transporters. n values are in brackets, with measurements taken from at least 2 batches of oocytes.

A further assay addresses T2, GlyT2 P561S mutant (Homo sapiens, UniProt Q9Y345, P561S).
T2 construct: expressed in transfected cells; host or cells: Xenopus laevis oocytes (cRNA injection)
T2 sequence (Q9Y345 1-797 P561S): T1 sequence (Q9Y345 1-797 W563L) with P561S, L563W
Description: Glycine transport currents, two electrode voltage clamp, oocytes expressing GlyT2 P561S. It is filed as cell-based. Conditions: for IC50 / % Max. inhibition: GlyT2 P561S; for % Max. inhibition: mean ± SEM. Here is the method: as §1, §2
(In two-electrode clamp one electrode senses voltage and the other passes current.)

The target of the next assay is T3, GlyT2 WT (Homo sapiens, UniProt Q9Y345).
T3 sequence (Q9Y345 1-797): T1 sequence (Q9Y345 1-797 W563L) with L563W
On the set-up: expressed in transfected cells; host or cells: Xenopus laevis oocytes (cRNA injection). Conditions: cited from earlier work; for IC50 / GlyT2 % max. inhibition: WT GlyT2, previously published; for IC50: mean (95% CI); for GlyT2 % max. inhibition: mean ± SEM; for mechanism of inhibition: versus substrate glycine, ref Mostyn et al., 2019, Wiles et al., 2006.

Where [1] appears, read: GlyT2 W563L, greater than maximum concentration applied (footnote a).

One may read the EC50 as the concentration that produces a half-maximal response. Lower therefore signals a more potent agent. For the compound `NCC(=O)O` [Glycine], the EC50 was 4900 ± 800 nM on GlyT2 W563L mutant (glycine transport, GlyT2 W563L (TM8)) and 15500 ± 4100 nM at GlyT2 P561S mutant (glycine transport, GlyT2 P561S (TM8)).

In general, IC50 refers to the point on the concentration scale where inhibition reaches its midpoint. For `CCCCC/C=C\C/C=C\C/C=C\C/C=C\CCCC(=O)NCC(=O)O` [N-arachidonyl Glycine, reference compound], at GlyT2 WT, the IC50 is 9100 nM, the “GlyT2 % max. inhibition” value is 79.6 ± 2.1% and the mechanism of inhibition result is “not competitive”.

For `CCCCCCCC/C=C\CCCCCCCC(=O)NCC(=O)O` [N-oleoyl Glycine, reference compound], the IC50 on GlyT2 W563L mutant (GlyT2 W563L, mean (95% CI)) was 755 nM; on GlyT2 P561S mutant (mean (95% CI)), 564 nM; on GlyT2 WT, 500 nM. Further, the “% Max. inhibition” value at GlyT2 W563L mutant (GlyT2 W563L) is recorded as 46.6 ± 4.0 (p=0.0449) %; at GlyT2 P561S mutant it was 62.1 ± 4.8 (p=0.9242) %. On GlyT2 WT, the “GlyT2 % max. inhibition” value is given as 66.8 ± 2.8%.

For the compound `CCCCCCCC/C=C\CCCCCCCC(=O)O[C@H](CC(=O)[O-])C[N+](C)(C)C` [oleoyl L-Carnitine, reference compound], the IC50 against GlyT2 W563L mutant (setting [1]) was greater than 3000 nM; on GlyT2 P561S mutant (greater than maximum concentration applied (footnote a)), greater than 3000 nM; at GlyT2 WT, 340 nM. The “% Max. inhibition” value at GlyT2 W563L mutant (GlyT2 W563L) was 34.7 ± 3.2 (p=0.0001) %; at GlyT2 P561S mutant, 31.6 ± 5.2 (p=0.0001) %. On GlyT2 WT, the “GlyT2 % max. inhibition” value is listed as 71.5 ± 5.7%.

Regarding `CCCCCCCC/C=C\CCCCCCCC(=O)N[C@@H](CC(=O)O)C(=O)O` [oleoyl l-Aspartate], the IC50 on GlyT2 W563L mutant (GlyT2 W563L, mean (95% CI)) was 1160 nM; on GlyT2 P561S mutant (mean (95% CI)), 2540 nM; at GlyT2 WT, 865 nM. For the same compound, the results for the “% Max. inhibition” value at GlyT2 W563L mutant (GlyT2 W563L) and on GlyT2 P561S mutant were 74.9 ± 7.5 (p=0.9965) % and 58.2 ± 4.7 (p=0.0954) %, respectively. The “GlyT2 % max. inhibition” value at GlyT2 WT is on record as 76.7 ± 5.3%.

Turning to `CCCCCCCC/C=C\CCCCCCCC(=O)N[C@@H](CCCCN)C(=O)O` [oleoyl l-Lysine], the IC50 at GlyT2 W563L mutant (GlyT2 W563L, mean (95% CI)) came to 175 nM; on GlyT2 P561S mutant (mean (95% CI)) it was 69.2 nM. The “% Max. inhibition” value at GlyT2 W563L mutant (GlyT2 W563L) is 73.5 ± 3.3 (p=0.1479) %; on GlyT2 P561S mutant it was 71.5 ± 4.8 (p=0.0758) %. Further, the “GlyT2 % max. inhibition” value on GlyT2 WT is 86.8 ± 2.4%. The mechanism of inhibition entry on GlyT2 WT is reported as “not competitive”.

Take `CCCCCCCC/C=C\CCCCCCCC(=O)N[C@@H](Cc1c[nH]c2ccccc12)C(=O)O` [oleoyl l-Tryptophan]: the half-inhibitory concentration (IC50) on GlyT2 W563L mutant (setting [1]) was greater than 3000 nM; against GlyT2 P561S mutant (mean (95% CI)), 318 nM. The “% Max. inhibition” value is 42.9 ± 2.6 (p=0.0001) % on GlyT2 W563L mutant (GlyT2 W563L) and 61.4 ± 4.2 (p=0.0001) % at GlyT2 P561S mutant. Besides, the “GlyT2 % max. inhibition” value at GlyT2 WT is recorded as 86.2 ± 3.8%.

Take `CCCCCCCC/C=C\CCCCCCCC(=O)N[C@H](C(=O)O)C(C)C` [oleoyl l-Valine]: at GlyT2 W563L mutant (GlyT2 W563L, footnote b), the “% Max. inhibition (% inhibition at the highest concentration of inhibitor used)” value is on record as 56.3 ± 9.1^b (p=0.5737) %. The IC50 against GlyT2 W563L mutant (GlyT2 W563L, mean (95% CI)) is 7510 nM; against GlyT2 P561S mutant (mean (95% CI)), 753 nM; at GlyT2 WT, 1170 nM. In addition, at GlyT2 P561S mutant, the “% Max. inhibition” value is reported as 94.5 ± 4.7 (p=0.9462) %. On GlyT2 WT, the “GlyT2 % max. inhibition” value was 90.9 ± 5.9%.

As for oleoyl d-Lysine, the figures for the concentration for half-maximal inhibition (IC50) at GlyT2 W563L mutant (setting [1]), at GlyT2 P561S mutant (mean (95% CI)) and at GlyT2 WT were greater than 3000 nM, 558 nM and 48.3 nM, respectively. The “% Max. inhibition” value at GlyT2 W563L mutant (GlyT2 W563L) was 42.1 ± 7.7 (p=0.0017) %; on GlyT2 P561S mutant, 76.7 ± 8.1 (p=0.4299) %. Besides, at GlyT2 WT, the “GlyT2 % max. inhibition” value is recorded as 91.0 ± 1.9%.
